The results in this text go back to patent US20230117470A1, “SUBSTITUTED PYRAZOLE COMPOUNDS AS TOLL RECEPTOR INHIBITORS” (BRISTOL-MYERS SQUIBB COMPANY, priority 2019, published 2023).

Assay type in all cases: cell-based
One experiment concerns the target T1, human TLR9 (Homo sapiens, UniProt Q9NR96).
T1 construct: host or cells: HEK-Blue cells
T1 sequence (Q9NR96 26-1032): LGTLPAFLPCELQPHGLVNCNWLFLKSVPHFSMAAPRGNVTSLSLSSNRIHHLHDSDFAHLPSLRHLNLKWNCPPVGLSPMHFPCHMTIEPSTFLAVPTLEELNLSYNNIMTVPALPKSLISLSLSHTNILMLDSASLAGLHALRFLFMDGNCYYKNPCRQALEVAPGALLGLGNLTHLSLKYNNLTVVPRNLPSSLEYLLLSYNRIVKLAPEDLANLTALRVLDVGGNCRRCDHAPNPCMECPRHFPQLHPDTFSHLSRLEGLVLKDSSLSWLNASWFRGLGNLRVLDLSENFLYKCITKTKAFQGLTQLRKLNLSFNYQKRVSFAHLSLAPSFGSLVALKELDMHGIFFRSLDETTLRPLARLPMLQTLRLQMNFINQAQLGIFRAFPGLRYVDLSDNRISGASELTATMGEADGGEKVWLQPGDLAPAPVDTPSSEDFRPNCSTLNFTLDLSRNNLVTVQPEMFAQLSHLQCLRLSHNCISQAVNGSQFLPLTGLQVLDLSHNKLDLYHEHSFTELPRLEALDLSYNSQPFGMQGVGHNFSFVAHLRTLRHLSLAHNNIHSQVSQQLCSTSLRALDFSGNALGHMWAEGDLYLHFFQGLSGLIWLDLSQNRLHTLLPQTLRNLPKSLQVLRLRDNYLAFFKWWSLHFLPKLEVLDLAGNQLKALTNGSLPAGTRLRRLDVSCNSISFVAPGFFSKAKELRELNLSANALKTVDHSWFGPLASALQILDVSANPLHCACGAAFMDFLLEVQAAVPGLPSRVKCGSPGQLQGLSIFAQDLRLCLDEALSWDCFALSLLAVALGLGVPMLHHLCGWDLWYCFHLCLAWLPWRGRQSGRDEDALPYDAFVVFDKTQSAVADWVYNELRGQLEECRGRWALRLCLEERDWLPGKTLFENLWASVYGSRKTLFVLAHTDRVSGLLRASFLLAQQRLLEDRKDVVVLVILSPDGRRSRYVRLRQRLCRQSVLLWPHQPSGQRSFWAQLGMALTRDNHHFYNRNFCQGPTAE
Put plainly: TLR9 inhibition reporter assay (HEK-Blue cells, SEAP reporter, ODN2006 stimulation). The conditions noted are these: HEK-Blue cells overexpressing human TLR9, SEAP reporter, ODN2006 5 nM. The protocol: (§1) TLR7/8/9 Inhibition Reporter Assays
(§2) HEK-Blue™-cells (Invivogen) overexpressing human TLR7, TLR8 or TLR9 receptors were used for screening inhibitors of these receptors using an inducible SEAP (secreted embryonic alkaline phosphatase) reporter gene under the control of the IFN-β minimal promoter fused to five NF-κB and AP-1-binding sites. Briefly, cells are seeded into Greiner 384 well plates (15000 cells per well for TLR7, 20,000 for TLR8 and 25,000 for TLR9) and then treated with test compounds in DMSO to yield a final dose response concentration range of 0.05 nM-50 μM. After a 30 minute compound pre-treatment at room temperature, the cells are then stimulated with a TLR7 ligand (gardiquimod at a final concentration of 7.5 μM), TLR8 ligand (R848 at a final concentration of 15.9 μM) or TLR9 ligand (ODN2006 at a final concentration of 5 nM) to activate NF-κB and AP-1 which induce the production of SLA After a 22 hour incubation at 37° C., […], SEAP levels are determined with the addition of HEK-Blue™ Detection reagent (Invivogen), a cell culture medium that allows for detection of SLAP, according to manufacturer's specifications. The percent inhibition is determined as the % reduction in the HEK-Blue signal present in wells treated with agonist plus DMSO alone compared to wells treated with a known inhibitor.
In general terms: In a reporter assay the amount or activity of a reporter protein is the signal.

Another experiment addresses T2, human TLR7 (Homo sapiens, UniProt Q9NYK1).
T2 construct: host or cells: HEK-Blue cells
T2 sequence (Q9NYK1 27-1049): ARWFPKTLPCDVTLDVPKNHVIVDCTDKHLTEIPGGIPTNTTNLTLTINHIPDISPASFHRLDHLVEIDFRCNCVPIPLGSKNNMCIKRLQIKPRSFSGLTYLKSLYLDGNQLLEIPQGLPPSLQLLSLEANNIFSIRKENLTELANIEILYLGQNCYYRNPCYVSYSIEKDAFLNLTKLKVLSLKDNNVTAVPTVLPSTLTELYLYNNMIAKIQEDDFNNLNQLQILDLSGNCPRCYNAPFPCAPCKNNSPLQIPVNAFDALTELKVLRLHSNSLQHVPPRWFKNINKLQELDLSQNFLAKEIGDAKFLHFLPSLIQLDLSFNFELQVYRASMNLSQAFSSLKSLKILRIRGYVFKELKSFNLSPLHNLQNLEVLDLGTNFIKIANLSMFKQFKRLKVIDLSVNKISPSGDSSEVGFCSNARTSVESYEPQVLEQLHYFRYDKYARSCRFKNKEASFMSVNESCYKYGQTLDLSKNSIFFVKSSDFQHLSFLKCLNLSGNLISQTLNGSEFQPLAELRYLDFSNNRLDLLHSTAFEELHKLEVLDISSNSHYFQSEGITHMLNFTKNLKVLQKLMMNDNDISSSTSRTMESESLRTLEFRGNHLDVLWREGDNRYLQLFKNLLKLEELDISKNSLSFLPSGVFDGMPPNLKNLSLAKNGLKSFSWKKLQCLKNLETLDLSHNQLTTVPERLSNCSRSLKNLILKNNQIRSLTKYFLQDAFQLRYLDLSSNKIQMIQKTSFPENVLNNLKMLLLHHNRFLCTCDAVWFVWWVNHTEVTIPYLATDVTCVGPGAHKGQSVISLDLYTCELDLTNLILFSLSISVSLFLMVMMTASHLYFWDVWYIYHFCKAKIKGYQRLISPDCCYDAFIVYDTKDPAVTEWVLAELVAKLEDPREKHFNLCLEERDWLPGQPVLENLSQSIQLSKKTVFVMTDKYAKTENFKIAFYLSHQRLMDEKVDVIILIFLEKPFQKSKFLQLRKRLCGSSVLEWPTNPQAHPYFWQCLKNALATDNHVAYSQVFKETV
Put plainly: TLR7 inhibition reporter assay (HEK-Blue cells, SEAP reporter, gardiquimod stimulation). The following applies: HEK-Blue cells overexpressing human TLR7, SEAP reporter, gardiquimod 7.5 μM. The protocol:
as §1, §2

A further experiment deals with T3, human TLR8 (Homo sapiens, UniProt Q9NR97).
T3 construct: host or cells: HEK-Blue cells
T3 sequence (Q9NR97 27-1041): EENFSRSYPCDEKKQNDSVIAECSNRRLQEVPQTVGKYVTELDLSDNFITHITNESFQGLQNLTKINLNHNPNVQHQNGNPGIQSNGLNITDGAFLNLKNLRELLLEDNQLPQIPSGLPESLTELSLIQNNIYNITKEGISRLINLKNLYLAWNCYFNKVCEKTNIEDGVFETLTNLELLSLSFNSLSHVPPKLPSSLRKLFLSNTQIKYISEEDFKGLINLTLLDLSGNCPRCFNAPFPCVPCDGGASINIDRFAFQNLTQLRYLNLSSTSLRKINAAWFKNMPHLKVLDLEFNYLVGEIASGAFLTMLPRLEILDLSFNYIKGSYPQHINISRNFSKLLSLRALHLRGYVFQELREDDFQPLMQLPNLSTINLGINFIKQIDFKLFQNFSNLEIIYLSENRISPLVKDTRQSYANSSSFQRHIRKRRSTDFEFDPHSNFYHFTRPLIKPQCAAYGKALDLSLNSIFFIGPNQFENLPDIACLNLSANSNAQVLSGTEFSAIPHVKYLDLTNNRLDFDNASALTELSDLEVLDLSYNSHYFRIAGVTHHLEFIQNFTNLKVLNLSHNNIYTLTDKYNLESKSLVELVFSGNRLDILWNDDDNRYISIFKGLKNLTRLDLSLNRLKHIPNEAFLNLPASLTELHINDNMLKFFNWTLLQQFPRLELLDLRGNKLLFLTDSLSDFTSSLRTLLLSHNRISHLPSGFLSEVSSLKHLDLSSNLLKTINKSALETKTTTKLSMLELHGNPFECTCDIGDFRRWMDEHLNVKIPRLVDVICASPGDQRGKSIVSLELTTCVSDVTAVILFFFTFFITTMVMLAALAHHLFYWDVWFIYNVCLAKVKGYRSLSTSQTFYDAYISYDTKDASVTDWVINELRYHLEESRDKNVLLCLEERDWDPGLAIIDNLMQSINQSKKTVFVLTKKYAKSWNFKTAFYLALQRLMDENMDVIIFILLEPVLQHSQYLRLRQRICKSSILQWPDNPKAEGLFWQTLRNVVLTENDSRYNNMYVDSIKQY
Put plainly: TLR8 inhibition reporter assay (HEK-Blue cells, SEAP reporter, R848 stimulation). The following applies: HEK-Blue cells overexpressing human TLR8, SEAP reporter, R848 15.9 μM. The protocol:
as §1, §2

Structures are written as SMILES. pIC50: −log10 of the molar value. A value given as a limit tells only on which side of the number the result lay.

As a reminder, the pIC50 is the negative decadic logarithm of the IC50, by convention in mol/L. `Cc1cc(-c2[nH]nc(-c3ccc(C4CCNCC4)nc3)c2C(C)C)cn2ncnc12` [Example 340]: the pIC50 was 5.28 on human TLR9, 8.33 at human TLR7 and 8.47 against human TLR8.
As to `Cc1cc(-c2[nH]nc(C(=O)NC3CCN(CC(C)(C)O)CC3)c2C(C)C)cn2ncnc12` [Example 138], the results for the pIC50 against human TLR9, against human TLR7 and on human TLR8 were 4.83, 9.03 and 8.40, respectively.
As for `Cc1cc(-c2[nH]nc(-c3ncc4c(n3)CCNC4)c2C(C)C)cn2ncnc12` [Example 222], the pIC50 is 4.52 against human TLR9, 9.12 against human TLR7 and 8.71 against human TLR8.
Take `Cc1cc(-c2[nH]nc(C3CCC(N(C)C(=O)C4CN(C(C)C)C4)CC3)c2C(C)C)cn2ncnc12` (single isomer, unassigned) [Example 304]: the pIC50 against human TLR9 was 4.45; against human TLR7, 8.09; against human TLR8, 7.72.
On to `COc1cc(-c2[nH]nc(-c3ccc(C4CN(C5COC5)C4)cc3)c2C(C)C)cn2ncnc12` [Example 332], for which the pIC50 is 4.99 against human TLR9, 7.77 on human TLR7 and 8.72 against human TLR8.
Take `Cc1cc(-c2cc(C(=O)NC3CCN(C(C)C)CC3)n[nH]2)cn2ncnc12` [Example 178, N-(1-isopropylpiperidin-4-yl)-5-(8-methyl-[1,2,4]triazolo[1,5-a]pyridin-6-yl)-1H-pyrazole-3-carboxamide]: the figures for the pIC50 at human TLR9, at human TLR7 and against human TLR8 were 5.17, 8.77 and 8.61, respectively.
The like results for `Cc1cc(-c2[nH]nc(-c3ccc(C4CCN(C(=O)CN(C)C)CC4)cc3)c2C(C)C)cn2ncnc12` [Example 323, 2-(dimethylamino)-1-(4-(4-(4-isopropyl-5-(8-methyl-[1,2,4]triazolo[1,5-a]pyridin-6-yl)-1H-pyrazol-3-yl)phenyl)piperidin-1-yl)ethan-1-one] were, in that order, less than 4.30, 7.65 and 8.41.
In the case of `Cc1cc(-c2[nH]nc(C(=O)NC3CCC(NC4(C)COC4)CC3)c2C(C)C)cn2ncnc12` (stereo not drawn) [Example 123], the pIC50 is 5.20 against human TLR9, 8.29 against human TLR7 and 7.77 at human TLR8.
`CC(C)c1c(C(=O)NC2CCN(C(C)C)CC2)n[nH]c1-c1ccc(C#N)c2ncccc12` [Example 40]: the values for the pIC50 on human TLR9, at human TLR7 and against human TLR8 were 4.72, 7.52 and 7.51, respectively.
Regarding `Cc1cc(-c2[nH]nc(-c3ncc4c(n3)CCN(C)C4)c2C(C)C)cn2ncnc12` [Example 248], the pIC50 on human TLR9 is 4.85; on human TLR7, 8.08; against human TLR8, 7.92.
For the compound `Cc1cc(-c2[nH]nc(-c3ccc4c(c3)CCN(CC(=O)N(C)C)C4)c2C(C)C)cn2ncnc12` [Example 271, 2-(6-(4-isopropyl-5-(8-methyl-[1,2,4]triazolo[1,5-a]pyridin-6-yl)-1H-pyrazol-3-yl)-3,4-dihydroisoquinolin-2(1H)-yl)-N,N-dimethylacetamide], the pIC50 is 5.34 against human TLR9, 9.02 on human TLR7 and 8.71 at human TLR8.
With `CCN1CC(c2ccc(-c3n[nH]c(-c4cc(C)c5ncnn5c4)c3C(C)C)cc2)C1` [Example 325], the figures for the pIC50 on human TLR9, against human TLR7 and on human TLR8 were less than 4.30, 7.72 and 9.72, respectively.
As for `Cc1cc(-c2[nH]nc(-c3ccc(C4CCN(CC(C)(C)C)CC4)cc3)c2C(C)C)cn2ncnc12` [Example 317], the pIC50 was 4.35 at human TLR9, 8.02 against human TLR7 and 8.37 on human TLR8.
For `COc1cc(-c2[nH]nc(-c3cnc(C4CCN(CC(=O)N(C)C)CC4)cn3)c2C(C)C)cn2ncnc12` [Example 401], the negative-log IC50 (pIC50) against human TLR9 is 4.87; at human TLR7, 7.43; at human TLR8 it was 7.45.
Regarding `Cc1cc(-c2[nH]nc(C(=O)NCC3CN(CC4(C)COC4)CCO3)c2C(C)C)cn2ncnc12` (stereo not drawn) [Example 137], the pIC50 was 5.17 on human TLR9, 8.47 on human TLR7 and 7.39 against human TLR8.
With `Cc1cc(-c2[nH]nc(C(=O)N[C@H]3CC[C@@H](N(CCC(C)C)CCC(C)C)CC3)c2C(C)C)cn2ncnc12` [Example 91], the pIC50 against human TLR9 was 5.17; on human TLR7, 8.40; on human TLR8, 8.09.
In the case of `Cc1cc(-c2[nH]nc(-c3ncc(C4CCN(C(C)C)CC4)cn3)c2C(C)C)cn2ncnc12` [Example 370], the pIC50 is 5.19 at human TLR9, 7.91 on human TLR7 and 8.86 against human TLR8.
